In brackets after ≈: the same amount, converted by molar mass. Read-outs that look alike come from different tables or passages of the source. Non-standard residues stand in square brackets, D forms with d. Residues, ends and D or L forms follow the SMILES beside them.
Columns and labels:
S. aureus [1] = tested on: S. aureus; design: method as in ref 17 (Manabe et al.); details: ref 17 (Manabe et al.); cited from earlier work
Human red blood cells = assay: in vitro
Experimental: (§1) The assay was performed using fresh human blood samples containing citrate phosphate dextrose anticoagulant collected from a blood bank (Iranian Blood Transfusion Organization). Human red blood cells (RBC) were centrifuged at 1700×g for 5 min; then the supernatant was removed and the erythrocyte pellet was diluted 1:100 in PBS to obtain a 1% erythrocyte suspension. […] Then, 50 μl of the 1% erythrocyte suspension and 50 μl of the peptides were mixed and added to wells of a 96-well polypropylene conical bottom microplate and incubated at 37 °C for 1 h. Following centrifugation of the samples at 1700×g for 5 min, 50 μl of the supernatant was transferred to wells of a 96-well flat-bottom plate for the absorbance measurement at 405 nm in a microplate reader. Identical volumes of Triton X-100 (1%) and PBS were used as positive and negative controls, respectively. The selectivity indexes (SI) were also determined as a toxicity indicator.

in vitro [2] = details: human
Experimental: as §1

in vitro [3] = details: human; remark: listed apart in the source
Experimental: To quantitatively investigate the cytotoxicity of mKLK and KLK peptides, the 2,3-bis-(2-methoxy-4-nitro-5-sulfophenyl)-2H-tetrazolium-5-carboxanilide (XTT) (cell proliferation kit II, Roche, Germany) assay was performed on human embryonic kidney (HEK)-293 cell line, as described previously[47], The HEK-293 cells were grown in DMEM supplemented with 4 µM glutamine, 10% fetal bovine serum (FBS), and 100 units/ml penicillin/streptomycin at 37 °C in a 5% CO2 and 95% air atmosphere. Following incubation for 24 h, the culture medium was discarded and fresh medium containing different concentrations of KLK and mKLK peptides (1.56, 3.12, 6.25, 12.5, and 25 µM) was added and incubated at 37 °C for 20 min. Then, the culture medium was discarded and 100 µl of XTT reagent mixture was added and incubated for 4 h. Finally, the absorbance was measured at 570 nm using an ELISA plate reader (Anthos 2020, England). The percentage of cell inhibition was calculated using the following formula: % Cell inhibition = Test Abs/Control Abs × 100.

S. aureus isolates = type: cell-based, Staphylococcus aureus
Experimental: Minimum inhibitory concentrations (MIC) of KLK, mKLK, and vancomycin were determined using microdilution broth assay according to clinical and laboratory standards institute (CLSI) guidelines with some modifications. Briefly, overnight cultures were diluted in Muller-Hinton broth (MHB; Merck, Germany) to achieve a final density of 5 × 10^5 CFU/ml. A volume of 100 μl of bacterial suspension was added to wells of sterile 96-well plates containing 100 μl of two-fold peptide dilutions, ranging from 0.25 to 256 µg/ml. Vancomycin was used as a positive control in this assay. […] MBC was determined by removing samples from wells with no visible growth, serially diluting, and plating on Mueller Hinton (MH) agar plates for CFU counting.

[4] = tested on: clinical Salmonella isolates; design: method as in PMID 34361810; details: cited from earlier work
S. aureus [5] = assay: Effect of 1/2× MIC on bacterial growth; type: cell-based, Staphylococcus aureus
Excerpt: To ensure that the antibiofilm property of mKLK is independent of its ability to inhibit bacterial growth, the effect of 1/2× MIC on bacterial growth was examined.

[6] = tested on: S. aureus ATCC25923 and MRSA-1 strains; assay: Catheter-associated biofilm infection mouse model; type: in vivo, Staphylococcus aureus; details: Balb/c mice, 5 days; for reduction of biofilm formation on catheters (crystal-violet assay): ATCC 25923; for reduction of biofilm on catheters (crystal-violet assay): MRSA
Experimental: All animal experiments were performed in accordance with the protocols approved by the Animal Ethics Committee of Ahvaz Jundishapur University of Medical Sciences (Application No. IR.AJUMS.ABHC.REC.1400.014). Female Balb/c mice (Laboratory Animal Reproduction and Maintenance Center Ahvaz Jundishapur University Ahvaz, Iran) were housed one mouse per cage, under sanitary conditions at 22–25 °C and at 12 h light/dark cycles, with access to sanitized pellet food and water. Prior to each experiment, mice were acclimated to room conditions for 1 week. To increase the experimental accuracy, the cages were disinfected with a povidone-iodine solution of 10%, and the bedding materials were autoclaved, and replaced every day.
In this study, eight groups (five mice per group) of 12-week-old female Balb/c mice were obtained from the Pasture Institute of Iran (Tehran, Iran). Three groups were used to investigate the effect of three concentrations of mKLK against ATCC25923 strain, three groups for three concentrations of mKLK against MRSA, and two groups for control). Mice were anesthetized by injection of ketamine 10% and xylazine 2% (in a ratio of 3 to 1). To create a subcutaneous pocket to place three 1-cm-long polyurethane catheters, a small incision was made. Three catheters were subcutaneously implanted on the lower back of mice. Following implantation of the catheters, injection of bacterial suspension and then mKLK peptide was performed into the subcutaneous pocket. […] In addition, PBS was injected alone into animals as a control group without contamination to evaluate the sterility of the surgical procedure. The incision was closed with Vetbond. Tissue adhesive (Kimiatajhiz teb, Iran) and cleansed with 10% PI solution. After 5 days, all mice were euthanized with CO2, and the catheters were removed. Subsequently, catheter-associated biofilms were evaluated using the CFU counting method, crystal violet assay, and SEM.
The biofilm mass attached to the catheter surface was measured using a colorimetric assay (crystal violet). After removing the catheters from the mouse skin and double washing with PBS, each catheter was placed in wells of a 24-well microtiter plate, and absolute methanol was added to fix the biofilm to the catheter surface. Then, the methanol was discarded and the catheters were dried at room temperature. After staining with crystal violet 0.1% for 5 min at room temperature, the dye was discarded and the catheters were washed with PBS. Then, 33% acetic acid was added to each well to release the absorbed dye. […] To enumerate biofilm cells, catheters were removed, transferred to sterile tubes, vortexed, and sonicated. Bacterial numbers were determined by serial diluting and plating on TSA[56].

[7] = 50% human serum, 37 °C, 2 h, reverse-phase HPLC
Experimental: To assess the serum stability of mKLK peptide to proteolytic degradation, the D-form mKLK peptide (0.5 mg) was dissolved in 4 ml of 50% (v/v) of serum from male healthy donors in PBS and incubated at 37 °C for 0, 60, and 120 min. After each incubation time, the samples were analyzed by reverse-phase HPLC on a Jupiter proteo C18 column (250 × 4.6 mm) and monitored with a fluorescence detector (wavelength: 560 nm). Analysis of the samples was performed over a linear gradient of 10–60% acetonitrile containing 0.08% trifluoroacetic acid for 50 min at a flow rate of 1 ml/min[48].

S. aureus ATCC 25923 = type: cell-based, Staphylococcus aureus; details: ATCC 25923, 2 h
Experimental: To test the retinue of antimicrobial activity of mKLK in human serum, MIC of the serum-treated peptide was determined against S. aureus ATCC 25923 using microdilution broth assay. […] The MIC was determined as the lowest concentration of peptide at which no visible growth is seen[49].

Structure (SMILES)	HC50 (Human red blood cells) [µg/mL]	HC50 (Human red blood cells; red cells of human, 1 h) [µM]	hemolysis at 1 h, 1.56 µM (in vitro [2]) [%]	hemolysis at 1 h, 3.12 µM (in vitro [2]) [%]	hemolysis at 1 h, 6.25 µM (in vitro [2]) [%]	hemolysis at 1 h, 12.5 µM (in vitro [2]) [%]	hemolysis at 1 h, 25 µM (in vitro [2]) [%]	hemolysis at 1 h, 50 µM (in vitro [2]) [%]	hemolysis at 1 h, 75 µM (in vitro [2]) [%]	hemolysis at 1 h, 100 µM (in vitro [2]) [%]	hemolysis at 1 h, 150 µM (in vitro [2]) [%]	hemolysis at 1 h, 200 µM (in vitro [2]) [%]	MBC (S. aureus isolates; ATCC25923) [µg/mL]	MBC (S. aureus isolates; MRSA-1) [µg/mL]	MBC (S. aureus isolates; MRSA-2) [µg/mL]	MBC (S. aureus isolates; MRSA-3) [µg/mL]	MBC (S. aureus isolates; MSSA-1) [µg/mL]	MBC (S. aureus isolates; MSSA-2) [µg/mL]	also measured
CC(C)C[C@@H](NC(=O)[C@H](N)CCCCN)C(=O)N[C@H](CCCCN)C(=O)N[C@H](CC(C)C)C(=O)N[C@H](CC(C)C)C(=O)N[C@H](CC(C)C)C(=O)N[C@H](CC(C)C)C(=O)N[C@H](CC(C)C)C(=O)N[C@H](CCCCN)C(=O)N[C@H](CC(C)C)C(=O)N[C@H](CCCCN)C(N)=O [KLK] (H-[dK][dL][dK][dL][dL][dL][dL][dL][dK][dL][dK]-NH2; N-terminus assumed)	38.49	29.1	10.4	18.3	27.1	34.2	42.8	71.5	80.1	88.3	92.2	95.4	4 (≈ 3.03 µM)	8 (≈ 6.05 µM)	8 (≈ 6.05 µM)	8 (≈ 6.05 µM)	4 (≈ 3.03 µM)	4 (≈ 3.03 µM)	MIC (S. aureus [1]): 4 µg/mL (≈ 3.03 µM); IC50 at 20 min (in vitro [3]): 28.8 µM; MIC [4]: > 256 µM
CC(C)C[C@@H](NC(=O)[C@H](N)Cc1c[nH]c2ccccc12)C(=O)N[C@H](Cc1c[nH]c2ccccc12)C(=O)N[C@H](C)C(=O)N[C@H](CC(C)C)C(=O)N[C@H](CC(C)C)C(=O)N[C@H](CCCCN)C(=O)N[C@H](CC(C)C)C(=O)N[C@H](CC(C)C)C(=O)N[C@H](CCCCN)C(=O)N[C@H](CC(C)C)C(=O)N[C@H](CCCCN)C(N)=O [mKLK] (H-[dW][dL][dW][dA][dL][dL][dK][dL][dL][dK][dL][dK]-NH2; N-terminus assumed)	118.6	77.8	0	0.3	1.8	9.3	15.4	36.2	48.2	58.2	62.4	67.1	4 (≈ 2.62 µM)	8 (≈ 5.25 µM)	8 (≈ 5.25 µM)	8 (≈ 5.25 µM)	4 (≈ 2.62 µM)	4 (≈ 2.62 µM)	effect on bacterial growth (S. aureus [5]): did not affect the bacterial growth; reduction of biofilm formation on catheters (crystal-violet assay) ([6]; 1/2× MIC): 62%; reduction of biofilm formation on catheters (crystal-violet assay) ([6]; 1/4×MIC): 36%; reduction of biofilm formation on catheters (crystal-violet assay) ([6]; 1 × MIC): 72%; reduction of biofilm on catheters (crystal-violet assay) ([6]; 1/2× MIC): 58%; reduction of biofilm on catheters (crystal-violet assay) ([6]; 1/4× MIC): 27%; reduction of biofilm on catheters (crystal-violet assay) ([6]; 1× MIC): 73%; percentage of the peptide remaining [7]: 79%; MIC after serum treatment (S. aureus ATCC 25923): 4 µg/mL (≈ 2.62 µM)
